Molecular target: T1, intact recombinant antibody against clothianidin and dinotefuran (Mus musculus, UniProt P01837+P01868)
T1 construct: The heavy and light chain variable region genes were ligated to linearized expression vectors pCDNA3.4-Mouse-IgG1 and pCDNA3.4-Mouse-Kappa; mouse IgG1 heavy chain constant region (fusion partner); mouse kappa light chain constant region (fusion partner); made in house; host or cells: HEK293F cells, double-plasmid transfection, Protein A purification
Assay: heterologous indirect competitive ELISA (thiacloprid-OVA coating antigen)
Type: binding
Method: In the early stage of preparation of parental ascitic monoclonal antibodies, a difference in sensitivity was compared between the homologous indirect competitive ELISA (coating antigen was clothianidin-OVA) and the heterologous indirect ELISA (coating antigens were thiacloprid-OVA and imidaclothiz-OVA).
In the present disclosure, the specificity of the antibody was evaluated by detecting the cross-reactivity with eight common neonicotinoid insecticides.

For CN/C(=N\[N+](=O)[O-])NCc1cnc(Cl)s1 [clothianidin], the “linear range (IC20 to IC80)” value was 1.08 to 15.06 ng/mL.
In the case of CN/C(=N/CC1CCOC1)N[N+](=O)[O-] (centres unmarked) [dinotefuran], the “linear range (IC20 to IC80)” value is reported as 3.78 to 30.03 ng/mL.
